The values below come from patent US4528393A, “Derivatives having expectorant activity, the procedure for their preparation and the pharmaceutical compositions which contain them” (Magis Farmaceutici S.R.L., priority 1983, dated 1985).

The structures appear in SMILES notation.

Data set [1] is described as follows: Acute toxicity in the mouse (DL50, Litchfield and Wilcoxon method). The class given is in vivo. The note with it: in vivo. The procedure: (§1) where R is as defined above, in the presence of an alkaline carbonate and of a catalyst, to obtain the corresponding formula (I) compound, as defined above, which, optionally, is salified. The new formula (I) compounds and their pharmaceutically acceptable salts, which form the object of this invention, have expectorant characteristics which are very useful for therapeutic applications. […] The peak level in the blood is reached 20-40 minutes after oral administration. This determines higher concentrations of active principle. With dogs, the half-life of the new derivatives in the blood is from 25-30 hours. It is also to be underlined that the new compounds are stable in both the stomach and the intestinal tract, hydrolizing after being absorbed. The complete reliability of the new compounds was determined by evaluating their acute toxicity. Acute toxicity was studies in the mouse, rat and guinea pig, comparing with ambroxol hydrochloride. The DL50 values were calculated by following the Litchfield and Wilcoxon method (Pharm. Exp. Therap. 1949, 96,99).

Data set [2] is described as follows: Acute toxicity in the rat (DL50, Litchfield and Wilcoxon method). To be noted: in vivo. How it is done:
as §1

Data set [3] can be described thus: Acute toxicity in the guinea pig (DL50, Litchfield and Wilcoxon method). The note with it: in vivo. How it is done:
as §1

For another data set, the system named is mouse. Kind of data set: Acute toxicity in the mouse (DL50, Litchfield and Wilcoxon method). The class given is in vivo. To be noted: os. The procedure:
as §1

On to `Cc1ccc(C(C)C)c(OCC(=O)O[C@H]2CC[C@H](NCc3cc(Br)cc(Br)c3N)CC2)c1` [E/6006, N-(2-amino-3,5-dibromobenzyl)-trans-4-amino-1-(thymolglycolyl)cyclohexane], for which the LD50 – broadly, the dose expected to kill half of the subjects tested – came out at 380 mg/kg in data set [1] (ip); 197 mg/kg in data set [1] (iv); 3900 mg/kg in data set [1] (po, os); 540 mg/kg in data set [2] (ip); 19000 mg/kg in data set [2] (po, os); 400 mg/kg in data set [3] (ip). Also, the LD50 in data set [3] (po, os) was found to be 1680 mg/kg.

Consider `Cc1cccc(OCC(=O)O[C@H]2CC[C@H](NCc3cc(Br)cc(Br)c3N)CC2)c1` [E/6003, N-(2-amino-3,5-dibromobenzyl)-trans-4-amino-1-(m-cresolglycolyl)cyclohexane], for which the LD50 in data set [1] (ip) came to 360 mg/kg; in data set [1] (iv), 187 mg/kg; in data set [1] (po, os) it was 3700 mg/kg; in data set [2] (ip), 510 mg/kg; in data set [2] (po, os) it was 18000 mg/kg; in data set [3] (ip), 380 mg/kg. Moreover, the LD50 in data set [3] (po, os) is 1600 mg/kg.

`COc1ccccc1OCC(=O)O[C@H]1CC[C@H](NCc2cc(Br)cc(Br)c2N)CC1` [E/6001, N-(2-amino-3,5-dibromobenzyl)-trans-4-amino-1-(guaiacolglycolyl)-cyclohexane]: the LD50 in data set [1] (ip) was found to be 375 mg/kg; in data set [1] (iv), 194 mg/kg; in data set [1] (po, os) it was 3850 mg/kg; in data set [2] (ip), 532 mg/kg; in data set [2] (po, os), 18700 mg/kg; in data set [3] (ip), 390 mg/kg. Moreover, in data set [3] (po, os), the LD50 was determined as 1650 mg/kg.

With `COc1cc(C)ccc1OCC(=O)O[C@H]1CC[C@H](NCc2cc(Br)cc(Br)c2N)CC1` [E/6002], the median lethal dose (LD50) amounted to 390 mg/kg in data set [1] (ip); 201 mg/kg in data set [1] (iv); 4000 mg/kg in data set [1] (po, os); 550 mg/kg in data set [2] (ip); 19600 mg/kg in data set [2] (po, os); 400 mg/kg in data set [3] (ip). Besides, in data set [3] (po, os), the LD50 was 1700 mg/kg.

For `Cc1ccccc1OCC(=O)O[C@H]1CC[C@H](NCc2cc(Br)cc(Br)c2N)CC1` [E/6004], the LD50 came to 365 mg/kg in data set [1] (ip); 187 mg/kg in data set [1] (iv); 3700 mg/kg in data set [1] (po, os); 500 mg/kg in data set [2] (ip); 18000 mg/kg in data set [2] (po, os); 375 mg/kg in data set [3] (ip). In data set [3] (po, os), this compound gave an LD50 of 1610 mg/kg.

With `Nc1c(Br)cc(Br)cc1CN[C@H]1CC[C@H](O)CC1` [Ambroxol Hydrochlorate, N-(2-amino-3,5-dibromobenzyl)-trans-4-amino-cyclohexanol, reference compound], the 50% lethal dose (LD50) in data set [1] (ip) was determined as 268 mg/kg; in data set [1] (iv), 138 mg/kg; in data set [2] (ip), 380 mg/kg; in data set [2] (po, os) it was 13400 mg/kg; in data set [3] (ip), 280 mg/kg; in data set [3] (po, os) it was 1180 mg/kg. The compound also came in with a DL50 with mouse of 2750 mg/kg.

On to `Cc1ccc(OCC(=O)O[C@H]2CC[C@H](NCc3cc(Br)cc(Br)c3N)CC2)cc1` [E/6005], for which the LD50 is 360 mg/kg in data set [1] (ip); 180 mg/kg in data set [1] (iv); 3700 mg/kg in data set [1] (po, os); 500 mg/kg in data set [2] (ip); 17800 mg/kg in data set [2] (po, os); 380 mg/kg in data set [3] (ip). The compound also displayed an LD50 in data set [3] (po, os) of 1600 mg/kg.

Regarding `Cc1ccc(C(C)C)cc1OCC(=O)O[C@H]1CC[C@H](NCc2cc(Br)cc(Br)c2N)CC1` [E/6007, N-(2-amino-3,5-dibromobenzyl)-trans-4-amino-1-(carvacrolglycolyl)cyclohexane], the LD50 in data set [1] (ip) turned out to be 390 mg/kg; in data set [1] (iv) it was 190 mg/kg; in data set [1] (po, os), 3900 mg/kg; in data set [2] (ip) it was 530 mg/kg; in data set [2] (po, os), 18500 mg/kg; in data set [3] (ip), 410 mg/kg. In addition, in data set [3] (po, os), the LD50 came out at 1700 mg/kg.
